US20150329519A1, “Formulations Comprising Lipoyl Compounds” (Ischemix, LLC, priority 2014, published 2015)

Experiments:
[1] = Polymer content by HPLC area counts after formulation or salt formation; assay type: physicochemical
Description: The purity of a lipoyl compound was analyzed by reversed-phase high performance liquid chromatography (HPLC). Mobile phase A was 0.1% triflouroacetic acid (TFA) in H2O and mobile phase B was 0.1% TFA in acetontrile (ACN). A linear gradient of 85:15 to 26:74 over 22 minutes at a flow rate of 1.5 mL/min at 30° C. was used. A lipoyl compound was diluted in ethanol:water (1:1) at a concentration of 1 mg/mL and a 25 μL aliquot was injected onto the HPLC. The sample was detected at 220 nm.
The initial procedure used to formulate (R)Lip-EA-OH consisted of the following sequence: • 1. Neutralize solid (R)Lip-EA-OH by treatment with aqueous sodium bicarbonate or sodium hydroxide; • 2. Dilute with water and saline to near the final volume and concentration; and • 3. Adjust pH and add water to final volume and concentration.
This formulation procedure was used effectively to prepare formulation from multiple lots of (R)Lip-EA-OH that were synthesized at scales below 50 g. As the synthetic process was scaled-up, however, partial polymerization of (R)Lip-EA-OH was observed during formulation. […]
Since (R)Lip-EA-OH was converted to the corresponding bis-sodium salt in situ during formulation, a procedure for synthesizing the bis-sodium salt of (R)Lip-EA-OH was examined. […] The isolated polymer was treated with the reducing agent dithiothreitol (DTT), and the resulting sample was analyzed by HPLC. […]

[2] = test system: myocardial damage associated with percutaneous coronary intervention; details: human trial, Kates et al. 2014; cited from earlier work
[3] = test system: patients with stable coronary artery disease undergoing elective stent placement by PCI; assay: Randomized placebo-controlled study of single IV dose in patients undergoing elective stent placement by PCI (CK-MB, Troponin-T); assay type: in vivo, human; details: for Troponin-T (ng/mL) - Change from baseline (FAP population), Mean / Troponin-T (ng/mL) - Change from baseline (FAP population), Median / Troponin-T (ng/mL), Mean / Troponin-T (ng/mL), Median: Day 1 (24 hours)
Description: A prospective, multi-center, blinded, randomized, placebo-controlled study to evaluate single dose regimens of a 10 mg/mL (R)Lip-EA-OH formulation for IV administration or single dose placebo in patients with stable coronary artery disease undergoing elective stent placement by PCI meeting all the eligibility criteria was conducted. The (R)Lip-EA-OH formulation was made in accordance with Example 3 and was administered at one of three doses: 0.8 mg/kg, 1.6 mg/kg and 2.4 mg/kg. The primary objective was to assess the safety of the (R)Lip-EA-OH formulation, ascertained by measuring the changes in CK-MB values up to 24 hours after the last balloon inflation. The secondary objective was to evaluate reduction of myocardial injury associated with stent PCI, as determined by serial measurements of cardiac biomarkers and as determined by continuous and serial ECG readings.
The primary outcome measure was the change in CK-MB at 24 hours after the last balloon inflation and it served as a surrogate marker for myocardial injury considered for safety and efficacy. CK-MB levels were measured on Day 1 at 0, 6, 12, 18, and 24 hours after the last balloon inflation.
The maximum serum concentration of CK-MB (Cmax) is calculated by subtracting the baseline value from the maximum concentration of CK-MB measured at any time point. CK-MB Cmax is correlated to the extent of myocardial injury associated with the PCI. The greatest Cmax value observed was in the placebo group.

[4] = 2.4 mg/kg dose group compared with other groups
[5] = 0.8, 1.6 or 2.4 mg/kg versus placebo, following PCI

- Polymer based upon HPLC area counts ([1]; after formulation by the initial procedure (solid neutralized, then diluted), FIG. 1): > 20%
- Polymer by HPLC area count analysis ([1]; initially, before formulation): < 0.1%
SMILES: C[C@H](NC(=O)[C@H](CCC(=O)O)NC(=O)CCCC[C@@H]1CCSS1)C(=O)O [(R)Lip-EA-OH, α-N—[(R)-1,2-diothiolane-3-pentanoyl]-L-glutamyl-L-alanine]
- Protection against myocardial damage associated with percutaneous coronary intervention [2]: statistically significant protection
- CK-MB (ng/mL) - Change from Baseline, Mean ([3]; 0.8 mg/kg single IV dose of 10 mg/mL formulation, 6 hr after last balloon inflation): 0.12 ng/mL
- CK-MB (ng/mL) - Change from Baseline, Mean ([3]; 0.8 mg/kg single IV dose of 10 mg/mL formulation, 12 hr after last balloon inflation): 1.63 ng/mL
- CK-MB (ng/mL) - Change from Baseline, Mean ([3]; 0.8 mg/kg single IV dose of 10 mg/mL formulation, 18 hr after last balloon inflation): 1.87 ng/mL
- CK-MB (ng/mL) - Change from Baseline, Mean ([3]; 0.8 mg/kg single IV dose of 10 mg/mL formulation, 24 hr after last balloon inflation): 1.80 ng/mL
- Troponin-T (ng/mL) - Change from baseline (FAP population), Mean ([3]; 0.8 mg/kg): 0.041 ng/mL
- Troponin-T (ng/mL) - Change from baseline (FAP population), Median ([3]; 0.8 mg/kg): 0.000 ng/mL
- Troponin-T (ng/mL), Mean ([3]; 0.8 mg/kg): 0.042 ng/mL
- Troponin-T (ng/mL), Median ([3]; 0.8 mg/kg): 0.000 ng/mL
- CK-MB (ng/mL) - Change from Baseline, Mean ([3]; 1.6 mg/kg single IV dose of 10 mg/mL formulation, 6 hr after last balloon inflation): 0.76 ng/mL
- CK-MB (ng/mL) - Change from Baseline, Mean ([3]; 1.6 mg/kg single IV dose of 10 mg/mL formulation, 12 hr after last balloon inflation): 1.95 ng/mL
- CK-MB (ng/mL) - Change from Baseline, Mean ([3]; 1.6 mg/kg single IV dose of 10 mg/mL formulation, 18 hr after last balloon inflation): 2.55 ng/mL
- CK-MB (ng/mL) - Change from Baseline, Mean ([3]; 1.6 mg/kg single IV dose of 10 mg/mL formulation, 24 hr after last balloon inflation): 2.54 ng/mL
- Troponin-T (ng/mL) - Change from baseline (FAP population), Mean ([3]; 1.6 mg/kg): 0.068 ng/mL
- Troponin-T (ng/mL) - Change from baseline (FAP population), Median ([3]; 1.6 mg/kg): 0.000 ng/mL
- Troponin-T (ng/mL), Mean ([3]; 1.6 mg/kg): 0.066 ng/mL
- Troponin-T (ng/mL), Median ([3]; 1.6 mg/kg): 0.000 ng/mL
- CK-MB Cmax as an indicator of injury [3, 4]: least amount of injury
- Efficacy markers of periprocedural injury (changes in Troponin-T, CK-MB AUC0-24, Cmax of CK-MB) [3, 4]: lowest
- CK-MB (ng/mL) - Change from Baseline, Mean ([3]; 2.4 mg/kg single IV dose of 10 mg/mL formulation, 6 hr after last balloon inflation): -0.10 ng/mL
- CK-MB (ng/mL) - Change from Baseline, Mean ([3]; 2.4 mg/kg single IV dose of 10 mg/mL formulation, 12 hr after last balloon inflation): 0.10 ng/mL
- CK-MB (ng/mL) - Change from Baseline, Mean ([3]; 2.4 mg/kg single IV dose of 10 mg/mL formulation, 18 hr after last balloon inflation): 0.30 ng/mL
- CK-MB (ng/mL) - Change from Baseline, Mean ([3]; 2.4 mg/kg single IV dose of 10 mg/mL formulation, 24 hr after last balloon inflation): 0.44 ng/mL
- Troponin-T (ng/mL) - Change from baseline (FAP population), Mean ([3]; 2.4 mg/kg): 0.018 ng/mL
- Troponin-T (ng/mL) - Change from baseline (FAP population), Median ([3]; 2.4 mg/kg): 0.000 ng/mL
- Troponin-T (ng/mL), Mean ([3]; 2.4 mg/kg): 0.019 ng/mL
- Troponin-T (ng/mL), Median ([3]; 2.4 mg/kg): 0.000 ng/mL
- Maximum CK-MB change from baseline (FIG. 3) [3, 5]: less myocardial injury than patients in the placebo group
- Troponin T change from baseline in the full analysis population (FIG. 4) [3, 5]: less myocardial injury than patients in the placebo group
- Efficacy in reducing myocardial injury / cardioprotective action ([3]; patients undergoing stent PCI, 0.8, 1.6 or 2.4 mg/kg): demonstrated efficacy in reducing the myocardial injury
